These results are taken from ChEMBL document CHEMBL2413025, “Synthesis, biological activity and molecular modeling studies on 1H-benzimidazole derivatives as acetylcholinesterase inhibitors” (Bioorg Med Chem, 2013).

Assay [1] has as its target Acetylcholinesterase (Homo sapiens, UniProt P22303). Description: Inhibition of recombinant human AChE using acetylthiocholine iodide as substrate preincubated for 5 mins before substrate addition by Ellman's method.
The next assay deals with Cholinesterase (Equus caballus, UniProt P81908).
For assay [2], the target named is Acetylcholinesterase (Electrophorus electricus, UniProt O42275).
Description: Inhibition of electric eel AChE using acetylthiocholine iodide as substrate preincubated for 5 mins before substrate addition by Ellman's method
A short description of assay [3]: Selectivity ratio of IC50 for horse serum BChE to IC50 for electric eel AChE.

Sequence of Acetylcholinesterase (Electrophorus electricus, UniProt O42275) (O42275 whole entry): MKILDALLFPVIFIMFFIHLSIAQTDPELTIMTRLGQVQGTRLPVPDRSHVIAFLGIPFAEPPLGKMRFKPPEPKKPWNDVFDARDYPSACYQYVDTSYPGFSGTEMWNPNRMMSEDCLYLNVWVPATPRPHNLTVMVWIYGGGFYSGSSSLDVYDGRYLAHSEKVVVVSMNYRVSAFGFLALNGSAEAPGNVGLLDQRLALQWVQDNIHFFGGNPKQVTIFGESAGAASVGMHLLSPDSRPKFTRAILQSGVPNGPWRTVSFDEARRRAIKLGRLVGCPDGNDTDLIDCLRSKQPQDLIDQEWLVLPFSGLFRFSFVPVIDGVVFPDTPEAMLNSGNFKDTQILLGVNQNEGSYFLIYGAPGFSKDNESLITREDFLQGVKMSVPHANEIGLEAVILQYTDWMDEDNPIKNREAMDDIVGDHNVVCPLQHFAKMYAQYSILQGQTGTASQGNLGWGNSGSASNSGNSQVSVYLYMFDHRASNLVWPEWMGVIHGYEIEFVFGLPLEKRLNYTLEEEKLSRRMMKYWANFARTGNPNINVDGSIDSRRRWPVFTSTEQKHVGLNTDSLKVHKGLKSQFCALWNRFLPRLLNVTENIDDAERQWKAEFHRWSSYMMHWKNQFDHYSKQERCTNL
Sequence of Cholinesterase (P81908 whole entry): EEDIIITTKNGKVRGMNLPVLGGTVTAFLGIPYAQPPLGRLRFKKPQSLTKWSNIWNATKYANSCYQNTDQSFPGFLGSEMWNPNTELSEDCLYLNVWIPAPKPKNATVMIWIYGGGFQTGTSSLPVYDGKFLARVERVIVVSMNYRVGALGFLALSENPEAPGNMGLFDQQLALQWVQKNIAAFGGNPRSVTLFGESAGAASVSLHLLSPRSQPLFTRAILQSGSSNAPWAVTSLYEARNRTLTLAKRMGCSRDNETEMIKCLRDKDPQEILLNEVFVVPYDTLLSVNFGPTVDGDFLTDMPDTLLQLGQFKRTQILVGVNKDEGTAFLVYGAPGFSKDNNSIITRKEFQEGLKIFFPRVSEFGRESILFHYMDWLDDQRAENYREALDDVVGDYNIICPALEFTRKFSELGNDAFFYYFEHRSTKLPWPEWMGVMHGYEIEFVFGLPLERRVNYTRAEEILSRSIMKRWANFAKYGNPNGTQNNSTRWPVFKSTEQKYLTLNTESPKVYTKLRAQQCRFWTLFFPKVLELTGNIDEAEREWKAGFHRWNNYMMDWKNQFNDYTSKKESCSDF
Sequence of Acetylcholinesterase (Homo sapiens, UniProt P22303) (P22303 whole entry): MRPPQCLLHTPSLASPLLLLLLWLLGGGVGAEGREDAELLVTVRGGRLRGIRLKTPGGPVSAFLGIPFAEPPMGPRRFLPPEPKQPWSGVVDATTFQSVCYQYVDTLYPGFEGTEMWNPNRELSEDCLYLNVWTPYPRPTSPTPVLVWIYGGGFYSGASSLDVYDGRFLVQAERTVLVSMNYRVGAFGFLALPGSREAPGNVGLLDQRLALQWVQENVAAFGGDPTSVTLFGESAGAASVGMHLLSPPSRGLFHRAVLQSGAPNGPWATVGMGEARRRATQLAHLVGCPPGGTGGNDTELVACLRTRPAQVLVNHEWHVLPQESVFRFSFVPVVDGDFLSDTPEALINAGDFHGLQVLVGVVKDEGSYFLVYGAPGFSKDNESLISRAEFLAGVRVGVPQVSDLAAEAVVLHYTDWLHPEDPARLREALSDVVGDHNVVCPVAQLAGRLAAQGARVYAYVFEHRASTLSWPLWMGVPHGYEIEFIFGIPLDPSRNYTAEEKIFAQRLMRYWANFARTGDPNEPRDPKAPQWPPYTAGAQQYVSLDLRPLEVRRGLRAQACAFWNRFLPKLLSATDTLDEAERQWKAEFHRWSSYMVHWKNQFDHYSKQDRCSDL

Regarding `CCN(CC)CCOc1ccc(-c2nc3ccc(C)cc3[nH]2)cc1`, the IC50 at Acetylcholinesterase [1] amounted to 51 µM; on Cholinesterase, 6.48 µM; against Acetylcholinesterase [2], 2.34 µM.

On to `Clc1ccc2[nH]c(-c3ccc(OCCN4CCOCC4)cc3)nc2c1`, for which the IC50 at Acetylcholinesterase [1] is 9.73 µM; against Cholinesterase, above 100 µM; against Acetylcholinesterase [2], 11.1 µM.

Take `Cc1ccc2[nH]c(-c3ccc(OCCN4CCOCC4)cc3)nc2c1`: the IC50 at Acetylcholinesterase [1] is 12.9 µM; against Cholinesterase, above 100 µM; against Acetylcholinesterase [2] it was above 100 µM.

For the compound `Cc1ccc2[nH]c(-c3ccc(OCCN4CCCC4)cc3)nc2c1`, the Ratio IC50 in assay [3] amounted to 2.4. Also, the IC50 was found to be 0.4 µM at Acetylcholinesterase [1], 3.24 µM against Cholinesterase and 1.34 µM on Acetylcholinesterase [2].

Regarding `CN(C)CCOc1ccc(-c2nc3ccccc3[nH]2)cc1`, the Ratio IC50 in assay [3] was 0.4. Also, the IC50 on Acetylcholinesterase [1] was determined as 10.7 µM; on Cholinesterase, 5.87 µM; against Acetylcholinesterase [2], 13.1 µM.

`c1ccc2[nH]c(-c3ccc(OCCN4CCCC4)cc3)nc2c1`: the Ratio IC50 in assay [3] is 7.6. Besides, the 50% inhibitory concentration (IC50) at Acetylcholinesterase [1] stood at 2.13 µM; at Cholinesterase it was 23 µM; on Acetylcholinesterase [2] it was 3.05 µM.

With `c1ccc2[nH]c(-c3ccc(OCCN4CCOCC4)cc3)nc2c1`, the results for the IC50 at Acetylcholinesterase [1], against Cholinesterase and on Acetylcholinesterase [2] were above 100 µM, above 100 µM and 18.8 µM, respectively.

Consider `CCN(CC)CCOc1ccc(-c2nc3cc(C)ccc3[nH]2)cc1`, for which the Ratio IC50 in assay [3] was found to be 2.8.

Turning to `CC(C)N(CCOc1ccc(-c2nc3cc(Cl)ccc3[nH]2)cc1)C(C)C`, the Ratio IC50 in assay [3] came out at 12.8.

As to `Cc1ccc2[nH]c(-c3ccc(OCCN4CCCCC4)cc3)nc2c1`, in assay [3], the Ratio IC50 was 1.6. Besides, the IC50 at Acetylcholinesterase [1] amounted to 0.39 µM; against Cholinesterase it was 1.37 µM; at Acetylcholinesterase [2] it was 0.84 µM.

Take `Clc1ccc2[nH]c(-c3ccc(OCCN4CCCC4)cc3)nc2c1`: the Ratio IC50 in assay [3] is 1.1. Besides, the half-inhibitory concentration (IC50) was 1.4 µM on Acetylcholinesterase [1], 3.42 µM against Cholinesterase and 3.24 µM against Acetylcholinesterase [2].

`Cc1ccc2[nH]c(-c3ccc(O)cc3)nc2c1`: the Ratio IC50 in assay [3] is 0.3. For the same compound, the figures for the half-inhibitory concentration (IC50) on Acetylcholinesterase [1], on Cholinesterase and at Acetylcholinesterase [2] were above 100 µM, 4.67 µM and 15.9 µM, respectively.

As to `Oc1ccc(-c2nc3cc(Cl)ccc3[nH]2)cc1`, in assay [3], the Ratio IC50 came out at 0.6. Further, the IC50 is above 100 µM on Acetylcholinesterase [1], 8.52 µM against Cholinesterase and 14.6 µM on Acetylcholinesterase [2].

For the compound `CC(C)N(CCOc1ccc(-c2nc3ccccc3[nH]2)cc1)C(C)C`, the Ratio IC50 in assay [3] was 3.5. Further, the values for the IC50 at Acetylcholinesterase [1], on Cholinesterase and on Acetylcholinesterase [2] were 23.4 µM, 4.11 µM and 1.19 µM, respectively.

Regarding `Clc1ccc2nc(-c3ccc(OCCN4CCCCC4)cc3)[nH]c2c1`, the results for the IC50 on Acetylcholinesterase [1], against Cholinesterase and against Acetylcholinesterase [2] were 0.13 µM, above 100 µM and 0.61 µM, respectively.

Consider `CN(C)CCOc1ccc(-c2nc3ccc(Cl)cc3[nH]2)cc1`, for which the IC50 was 8.02 µM at Acetylcholinesterase [1], above 100 µM on Cholinesterase and 2.68 µM against Acetylcholinesterase [2].

Turning to `Oc1ccc(-c2nc3ccccc3[nH]2)cc1`, the Ratio IC50 in assay [3] stood at 0.3. The values for the IC50 at Acetylcholinesterase [1], against Cholinesterase and against Acetylcholinesterase [2] were above 100 µM, 4.59 µM and 17.3 µM, respectively.

As for `CCN(CC)CCOc1ccc(-c2nc3ccccc3[nH]2)cc1`, in assay [3], the Ratio IC50 was determined as 0.3. For the same compound, the figures for the IC50 at Acetylcholinesterase [1], on Cholinesterase and on Acetylcholinesterase [2] were above 100 µM, 5.06 µM and 15.6 µM, respectively.

As to `c1ccc2[nH]c(-c3ccc(OCCN4CCCCC4)cc3)nc2c1`, in assay [3], the Ratio IC50 stood at 2.3. For the same compound, the IC50 at Acetylcholinesterase [1] was 1.03 µM; at Cholinesterase it was 2.45 µM; against Acetylcholinesterase [2], 1.08 µM.

Consider `CC(C)N(CCOc1ccc(-c2nc3ccc(Cl)cc3[nH]2)cc1)C(C)C`, for which the IC50 at Acetylcholinesterase [1] was determined as 3.68 µM; against Cholinesterase, 7.44 µM; on Acetylcholinesterase [2], 0.58 µM.

For the compound `Cc1ccc2[nH]c(-c3ccc(OCCN(C)C)cc3)nc2c1`, the values for the concentration for half-maximal inhibition (IC50) on Acetylcholinesterase [1], against Cholinesterase and on Acetylcholinesterase [2] were 12.3 µM, above 100 µM and 5.06 µM, respectively.

As for `CCN(CC)CCOc1ccc(-c2nc3cc(Cl)ccc3[nH]2)cc1`, the half-inhibitory concentration (IC50) is 8.75 µM at Acetylcholinesterase [1], above 100 µM on Cholinesterase and 3.5 µM against Acetylcholinesterase [2].

One may read the IC50 as the concentration needed to halve the response being measured.
